Measured values published in paper PMC6973011, “Stafia‐1: a STAT5a‐Selective Inhibitor Developed via Docking‐Based Screening of in Silico O‐Phosphorylated Fragments” (Chemistry (Weinheim an Der Bergstrasse, Germany), 2019).
Where two headings read alike, the source gives them in different places.

What was measured:
STAT5b = target: T1, STAT5b (Homo sapiens, UniProt P51692); experiment: Fluorescence polarization competitive binding assay, STAT5b; conditions: for inhibition at 100 µM: read-out: Inhibition of STAT5b at 100 µM; for inhibition at 200 µM: read-out: STAT5b inhibition at 200 μM
T1 construct: made in house
T1 sequence (P51692 1-787): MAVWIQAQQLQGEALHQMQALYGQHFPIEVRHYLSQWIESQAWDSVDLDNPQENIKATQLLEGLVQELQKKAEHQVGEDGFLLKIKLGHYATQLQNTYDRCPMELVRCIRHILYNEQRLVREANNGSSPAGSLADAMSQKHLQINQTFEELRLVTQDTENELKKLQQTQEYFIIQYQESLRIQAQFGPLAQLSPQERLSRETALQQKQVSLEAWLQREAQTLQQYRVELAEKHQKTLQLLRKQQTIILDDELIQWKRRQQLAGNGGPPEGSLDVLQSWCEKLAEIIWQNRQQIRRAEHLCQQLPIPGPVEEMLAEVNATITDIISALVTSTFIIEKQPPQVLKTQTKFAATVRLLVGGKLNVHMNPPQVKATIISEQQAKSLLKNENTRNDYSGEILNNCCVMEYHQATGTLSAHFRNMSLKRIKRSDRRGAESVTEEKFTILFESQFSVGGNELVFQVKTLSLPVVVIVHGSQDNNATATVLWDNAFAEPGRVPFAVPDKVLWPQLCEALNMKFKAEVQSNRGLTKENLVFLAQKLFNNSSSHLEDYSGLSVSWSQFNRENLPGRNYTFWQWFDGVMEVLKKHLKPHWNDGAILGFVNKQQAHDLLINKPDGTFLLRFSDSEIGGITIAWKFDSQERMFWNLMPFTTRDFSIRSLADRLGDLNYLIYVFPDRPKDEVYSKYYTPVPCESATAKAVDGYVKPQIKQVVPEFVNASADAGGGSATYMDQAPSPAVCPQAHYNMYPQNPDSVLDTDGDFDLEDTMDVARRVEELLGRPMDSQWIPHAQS

STAT3 = STAT3 (Homo sapiens, UniProt P40763); experiment: Fluorescence polarization competitive binding assay, STAT3 SH2 domain; conditions: for inhibition at 100 µM: read-out: Inhibition of STAT3 at 100 µM; for inhibition at 200 µM: read-out: STAT3 inhibition at 200 μM
STAT3, sequence (P40763 whole entry, species assumed, the tested form may be a part): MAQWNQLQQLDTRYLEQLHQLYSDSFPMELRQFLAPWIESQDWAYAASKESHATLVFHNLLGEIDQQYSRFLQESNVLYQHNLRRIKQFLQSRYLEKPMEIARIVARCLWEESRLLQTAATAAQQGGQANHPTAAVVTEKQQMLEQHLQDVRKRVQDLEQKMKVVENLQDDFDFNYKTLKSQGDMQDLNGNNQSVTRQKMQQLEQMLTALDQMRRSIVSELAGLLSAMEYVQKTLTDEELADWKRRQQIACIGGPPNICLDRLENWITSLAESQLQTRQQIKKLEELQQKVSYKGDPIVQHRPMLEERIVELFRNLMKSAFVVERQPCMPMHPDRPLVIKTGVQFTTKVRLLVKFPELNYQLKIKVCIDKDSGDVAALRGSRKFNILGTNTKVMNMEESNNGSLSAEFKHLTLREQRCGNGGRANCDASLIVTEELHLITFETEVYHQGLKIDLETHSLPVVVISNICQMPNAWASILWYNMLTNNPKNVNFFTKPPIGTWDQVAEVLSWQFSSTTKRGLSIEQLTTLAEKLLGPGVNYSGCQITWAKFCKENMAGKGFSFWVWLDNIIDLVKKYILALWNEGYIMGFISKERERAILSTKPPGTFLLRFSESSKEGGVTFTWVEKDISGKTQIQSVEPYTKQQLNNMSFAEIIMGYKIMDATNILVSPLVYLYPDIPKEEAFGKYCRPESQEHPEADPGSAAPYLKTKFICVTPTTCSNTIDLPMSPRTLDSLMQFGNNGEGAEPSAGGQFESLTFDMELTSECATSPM
Excerpt: Expression and purification of STAT1, STAT3, STAT4, STAT5a, STAT5b, STAT5a Trp566Arg, STAT5b Arg566Trp, STAT5b 6M, STAT5b 7M, STAT6, and Lck have previously been described.[4, 12] STAT proteins were purified over a single His-Bind resin (Millipore) column.
Wild-type and mutant STAT5a/b proteins used for activity analysis of 20 were purified over two successive His-Bind resin columns.[4, 13]
Fluorescence Polarization assays
Competitive binding assays based on fluorescence polarization were essentially carried out as described.[14] Unless stated otherwise, the following final concentration of proteins were used:
STAT4; 105 nM for STAT6; 30 nM for Lck. Final concentration of all peptides: 10 nM. Peptides used: 5-carboxyfluorescein-GpYLVLDKW for STAT5a/b and point mutants thereof; 5-carboxyfluorescein-GpYLPQTV-NH2 for STAT3; 5-carboxyfluorescein-GpYDKPHVL for STAT1; 5-carboxyfluorescein-GpYLPQNID-OH for STAT4; 5-carboxyfluorescein-
analysis of 20 against wild-type (wt) STAT5a/b and STAT5a/b point mutants, the following concentrations of double-purified protein were used, which reflect the approximate Kd values of the interactions with 5-carboxyfluorescein-GpYLVLDKW: STAT5a wt: 147 nM; STAT5b wt:
STAT5b 6M: 80 nM; STAT5b 7M: 282 nM. Assay buffer: 10 mM Tris (pH 8.0), 50 mM NaCl, 1 mM EDTA, 1 mM DTT, 0.1 % Nonidet P-40 substitute, and 2 % DMSO in water. A major part of the pipetting was done using a Biomek FXp sceening robot (Beckman-Coulter). Protein and test compounds were incubated for 1 h, followed by addition of the fluorescein-labeled peptide.
Fluorescence polarization was measured after another hour using an Infinite F500 plate reader (Tecan). IC50 values were converted to Ki-values using the published equation.[15]

STAT5a = target: T2, STAT5a (Homo sapiens, UniProt P42229); experiment: Fluorescence polarization competitive binding assay, STAT5a; conditions: for inhibition at 100 µM: read-out: Inhibition of STAT5a at 100 µM
T2 construct: made in house
T2 sequence (P42229 1-794): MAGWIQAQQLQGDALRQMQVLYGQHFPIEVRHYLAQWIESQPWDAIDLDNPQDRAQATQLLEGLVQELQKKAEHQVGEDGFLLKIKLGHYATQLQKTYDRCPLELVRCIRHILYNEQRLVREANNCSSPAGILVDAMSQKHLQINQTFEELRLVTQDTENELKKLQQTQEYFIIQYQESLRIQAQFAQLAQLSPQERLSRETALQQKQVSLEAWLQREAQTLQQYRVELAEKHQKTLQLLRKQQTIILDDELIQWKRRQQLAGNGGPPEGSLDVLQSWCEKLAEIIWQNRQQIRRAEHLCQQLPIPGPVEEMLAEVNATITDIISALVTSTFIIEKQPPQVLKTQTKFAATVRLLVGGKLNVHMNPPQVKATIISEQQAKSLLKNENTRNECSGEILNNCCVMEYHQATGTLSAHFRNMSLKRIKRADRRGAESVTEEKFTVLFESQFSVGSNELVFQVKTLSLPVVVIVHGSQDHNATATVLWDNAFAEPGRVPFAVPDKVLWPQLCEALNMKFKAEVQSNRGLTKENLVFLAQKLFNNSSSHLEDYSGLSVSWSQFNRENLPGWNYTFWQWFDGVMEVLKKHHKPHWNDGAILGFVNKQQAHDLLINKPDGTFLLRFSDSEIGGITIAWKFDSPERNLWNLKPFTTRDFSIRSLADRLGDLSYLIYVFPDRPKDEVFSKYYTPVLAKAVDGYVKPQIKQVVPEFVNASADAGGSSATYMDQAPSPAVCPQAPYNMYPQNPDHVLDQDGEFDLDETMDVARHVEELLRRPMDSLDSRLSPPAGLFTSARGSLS

[1] = target: T3, STAT5a‐GFP fusion protein (Homo sapiens, UniProt P42229); conditions: K562 cells, 4 h treatment
T3 sequence (P42229 1-794): T2 sequence (P42229 1-794)
Description: (§1) 27 was tested for its ability to prevent phosphorylation of STAT5a in K562 cells, a human chronic myelogenous leukemia cell line. In these cells, both STAT5a and STAT5b are constitutively phosphorylated on Tyr694 (STAT5a) and Tyr699 (STAT5b), respectively, by Bcr‐Abl. Since phosphorylation is dependent on the function of the SH2 domain, a STAT5 SH2 domain inhibitor will reduce the ability of STAT5 to be tyrosine phosphorylated by Bcr‐Abl (Figure 5 B).
(§2) C) Effect of 27 on phosphorylation of STAT5a in STAT5a‐GFP‐transfected K562 cells, and D) on phosphorylation of STAT5b in STAT5b‐GFP‐transfected K562 cells. E, F) Quantitation of the data shown in C) (n=4), and D) (n=3), respectively. Phospho‐STAT5a/b‐GFP levels are normalized against total STAT5a/b‐GFP. All error bars represent standard deviations (s.d.).
(§3) Chronic myeloid leukemia K562 cells were obtained from DSMZ (Braunschweig, Germany). […]
(§4) Transfection of cultured K562 cells and Western blotting was performed as previously described.[14, 16] […] Primary antibodies (phospho-STAT5, STAT5, β-Actin; 1:1000, Cell Signaling) were detected using α-rabbit-HRP secondary antibody (1:3000, Dako) and ECL (Western Lightning Plus chemiluminescence reagent, Perkin-Elmer).
(§5) Visualization was carried out using an ImageQuant digital imaging system (GE Healthcare) and ImageJ software (NIH) was used for quantitative analysis.[17]

endogenous STAT5a/b = experiment: Phosphorylation of endogenous STAT5a/b in K562 cells (Western blot)
Description: In these cells, both STAT5a and STAT5b are constitutively phosphorylated on Tyr694 (STAT5a) and Tyr699 (STAT5b), respectively, by Bcr‐Abl. Since phosphorylation is dependent on the function of the SH2 domain, a STAT5 SH2 domain inhibitor will reduce the ability of STAT5 to be tyrosine phosphorylated by Bcr‐Abl (Figure 5 B).
Chronic myeloid leukemia K562 cells were obtained from DSMZ (Braunschweig, Germany).
K562 cells were cultured in RPMI 1640 medium (Gibco Life Technologies), supplemented by 10 % (v/v) FBS (Gibco Life Technologies), 2 mM L-glutamine (Gibco Life Technologies) and 1 % (v/v) penicillin/streptomycin (Gibco Life Technologies), at 37 °C, 5 % CO2 and 95 %
In brief, cells were transfected with plasmid encoding either human wild-type STAT5a-GFP or STAT5b-GFP. K562 cells (6 x 10^5 cells per well) were seeded into 24-well plate (Corning) and were transfected using Fugene HD Transfection Reagent (Promega) with a 4:1 ratio of Fugene:DNA. […] After harvesting, cells were centrifuged at 3.000 rpm at 4 °C for 5 min. […] Primary antibodies (phospho-STAT5, STAT5, β-Actin; 1:1000, Cell Signaling) were detected using α-rabbit-HRP secondary antibody (1:3000, Dako) and ECL (Western Lightning Plus chemiluminescence reagent, Perkin-Elmer).
as §5

STAT5b‐GFP construct = target: T4, STAT5b‐GFP construct (Homo sapiens, UniProt P51692); conditions: K562 cells, 4 h treatment
T4 sequence (P51692 1-787): T1 sequence (P51692 1-787)
Description: as §1, §2, §3, §4, §5

[2] = FP assay, IC50 converted to Ki, read-out: STAT5a K i

## COc1ccc(-c2cc(OP(=O)(O)O)cc(-c3ccc(Cl)cc3)c2)cc1 [Compound 1]
STAT5b
  IC50: 49.4 ± 3.3 µM
  Ki: 24.5 ± 1.6 µM
  inhibition at 100 µM: 73 ± 3%
STAT3
  IC50: 120 ± 10 µM
  Ki: 59.2 ± 5 µM
  inhibition at 100 µM: 43 ± 5%
STAT5a
  IC50: 39.9 ± 1.9 µM
  Ki: 19.7 ± 0.9 µM
  inhibition at 100 µM: 73 ± 5%

## O=C(C=Cc1c(F)c(F)c(F)c(F)c1F)c1cccc(OP(=O)(O)O)c1 [Compound 2]
STAT5b
  inhibition at 100 µM: 37 ± 2%
STAT3
  inhibition at 100 µM: 43 ± 2%
STAT5a
  inhibition at 100 µM: 51 ± 4%

## O=C(C=Cc1ccccc1C(F)(F)F)c1cccc(OP(=O)(O)O)c1 [Compound 3]
STAT5b
  inhibition at 100 µM: 31 ± 3%
STAT3
  inhibition at 100 µM: 53 ± 3%
STAT5a
  inhibition at 100 µM: 37 ± 9%

## CC(=O)Nc1ccc(C=CC(=O)c2cccc(OP(=O)(O)O)c2)cc1 [Compound 4]
STAT5b
  inhibition at 100 µM: 52 ± 4%
STAT3
  inhibition at 100 µM: 29 ± 7%
STAT5a
  inhibition at 100 µM: 57 ± 2%

## O=C(c1ccc([N+](=O)[O-])cc1)c1coc2ccc(OP(=O)(O)O)cc12 [Compound 5]
STAT5b
  inhibition at 100 µM: 88 ± 1%
STAT3
  inhibition at 100 µM: 26 ± 8%
STAT5a
  inhibition at 100 µM: 87 ± 2%

## O=C(Cn1ccc2ccccc21)Nc1cccc(OP(=O)(O)O)c1 [Compound 6]
STAT5b
  inhibition at 100 µM: 24 ± 14%
STAT3
  inhibition at 100 µM: 11 ± 6%
STAT5a
  inhibition at 100 µM: 46 ± 6%

## O=C(Nc1cccc(OP(=O)(O)O)c1)c1cccc(S(=O)(=O)N2CCCC2)c1 [Compound 7]
STAT5b
  inhibition at 100 µM: 4 ± 9%
STAT3
  inhibition at 100 µM: 3 ± 2%
STAT5a
  inhibition at 100 µM: 26 ± 17%

## O=C(CCNS(=O)(=O)c1ccc(C2CCCCC2)cc1)N1CCN(c2ccc(OP(=O)([O-])[O-])cc2)CC1.[Na+].[Na+] [Compound 8]
STAT5b; FP assay, 100 µM
  Inhibition of STAT5b at 100 µM: 63±1%
STAT3; FP assay, 100 µM
  Inhibition of STAT3 at 100 µM: 33±2%
STAT5a; FP assay, 100 µM
  Inhibition of STAT5a at 100 µM: 65±5%

## CN(C1CCCCC1)S(=O)(=O)c1cccc(C(=O)N2CCN(c3ccc(OP(=O)(O)O)cc3)CC2)c1 [Compound 9]
STAT5b
  inhibition at 100 µM: 23 ± 8%
STAT3
  inhibition at 100 µM: 33 ± 5%
STAT5a
  inhibition at 100 µM: 41 ± 8%

## O=P(O)(O)Oc1cc(-c2ccc(Cl)cc2)cc(-c2ccc(Cl)cc2)c1 [Compound 10]
STAT5b
  IC50: 37.7 ± 0.05 µM
  Ki: 18.7 ± 0.02 µM
STAT3
  IC50: 38.4 ± 1.7 µM
  Ki: 18.9 ± 0.9 µM
STAT5a
  IC50: 42.2 ± 3.3 µM
  Ki: 20.9 ± 1.6 µM

## O=P(O)(O)Oc1cc(-c2ccccc2)cc(-c2ccccc2)c1 [Compound 11]
STAT5b
  IC50: 95 ± 3 µM
  Ki: 48.4 ± 2 µM
STAT3
  inhibition at 200 µM: 48 ± 1%
STAT5a
  IC50: 47.9 ± 4.3 µM
  Ki: 23.7 ± 2.1 µM

## COc1ccc(-c2cc(O)cc(-c3ccc(OC)cc3)c2)cc1 [Compound 12 a]
STAT5b; FP assay, 200 μM (highest concentration tested)
  STAT5b inhibition at 200 μM: no inhibition
STAT3; FP assay, 200 µM
  STAT3 inhibition at 200 μM: no inhibition
STAT5a; FP assay, 200 µM
  STAT5a inhibition at 200 μM: no inhibition

## COc1ccc(-c2cc(OP(=O)(O)O)cc(-c3ccc(OC)cc3)c2)cc1 [Compound 12]
STAT5b
  IC50: 77.5 ± 0.4 µM
  Ki: 38.5 ± 0.2 µM
STAT3
  IC50: 156 ± 12 µM
  Ki: 77.1 ± 5.8 µM
STAT5a
  IC50: 27.9 ± 1.7 µM
  Ki: 13.8 ± 0.8 µM

## COc1cccc(-c2cc(OP(=O)(O)O)cc(-c3cccc(OC)c3)c2)c1 [Compound 13]
STAT5b
  IC50: 86.7 ± 3.1 µM
  Ki: 43.1 ± 1.5 µM
STAT3
  inhibition at 200 µM: 51 ± 2%
STAT5a
  IC50: 32.3 ± 5.7 µM
  Ki: 16 ± 2.8 µM

## COc1ccccc1-c1cc(OP(=O)(O)O)cc(-c2ccccc2OC)c1 [Compound 14]
STAT5b
  IC50: 158 ± 1 µM
  Ki: 78.6 ± 0.4 µM
STAT3
  inhibition at 200 µM: 28 ± 1%
STAT5a
  IC50: 88.7 ± 6.1 µM
  Ki: 43.9 ± 3 µM

## COc1ccc(-c2cc(OP(=O)(O)O)cc(-c3ccc(OC)c(OC)c3)c2)cc1OC [Compound 15]
STAT5b
  inhibition at 200 µM: 44 ± 3%
STAT3
  inhibition at 200 µM: 43 ± 2%
STAT5a
  IC50: 33.4 ± 5.2 µM
  Ki: 16.5 ± 2.5 µM

## COc1cccc(-c2cc(OP(=O)(O)O)cc(-c3cccc(OC)c3OC)c2)c1OC [Compound 16]
STAT5b
  inhibition at 200 µM: 40 ± 2%
STAT3
  inhibition at 200 µM: 15 ± 2%
STAT5a
  IC50: 45.1 ± 9.8 µM
  Ki: 22.3 ± 4.8 µM

## COc1cc(OC)cc(-c2cc(OP(=O)(O)O)cc(-c3cc(OC)cc(OC)c3)c2)c1 [Compound 17]
STAT5b
  IC50: 73.4 ± 5 µM
  Ki: 36.5 ± 2.5 µM
STAT3
  inhibition at 200 µM: 50 ± 3%
STAT5a
  IC50: 34.7 ± 4.5 µM
  Ki: 17.1 ± 2.2 µM

## O=P(O)(O)Oc1cc(-c2ccc3c(c2)OCO3)cc(-c2ccc3c(c2)OCO3)c1 [Compound 18]
STAT5b
  IC50: 56.4 ± 1 µM
  Ki: 28 ± 0.5 µM
STAT3
  IC50: 129 ± 5 µM
  Ki: 63.8 ± 2.3 µM
STAT5a
  IC50: 28.4 ± 4.4 µM
  Ki: 14 ± 2.1 µM

## O=P(O)(O)Oc1cc(-c2ccc3c(c2)OCCO3)cc(-c2ccc3c(c2)OCCO3)c1 [Compound 19]
STAT5b
  IC50: 71.2 ± 5.7 µM
  Ki: 35.4 ± 2.8 µM
STAT3
  IC50: 104 ± 4 µM
  Ki: 51.2 ± 2 µM
STAT5a
  IC50: 22.5 ± 3.8 µM
  Ki: 11.1 ± 1.9 µM

## COc1ccc(-c2cc(OP(=O)(O)O)cc(-c3ccc(OC)c(OC)c3OC)c2)c(OC)c1OC [Compound 21]
STAT5b
  inhibition at 200 µM: 28 ± 2%
STAT3
  inhibition at 200 µM: 15 ± 3%
STAT5a
  IC50: 111 ± 10 µM
  Ki: 55.2 ± 4.9 µM

## O=P(O)(O)Oc1cc(-c2cc(F)c(F)c(F)c2)cc(-c2cc(F)c(F)c(F)c2)c1 [Compound 22]
STAT5b
  IC50: 46.9 ± 0.9 µM
  Ki: 23.3 ± 0.4 µM
STAT3
  IC50: 102 ± 9 µM
  Ki: 50.4 ± 4.2 µM
STAT5a
  IC50: 21.9 ± 2.1 µM
  Ki: 10.8 ± 1.1 µM

## COc1cc(-c2cccc(OP(=O)(O)O)c2)cc(OC)c1OC [Compound 23]
STAT5b
  inhibition at 200 µM: 39 ± 1%
STAT3
  inhibition at 200 µM: 40 ± 1%
STAT5a
  IC50: 106 ± 4 µM
  Ki: 53 ± 2.1 µM
STAT5a; compared with 20
  drop in activity against STAT5a on deletion of one phenyl ring of 20: 5 fold

## COc1cc(-c2cc(CP(=O)(O)O)cc(-c3cc(OC)c(OC)c(OC)c3)c2)cc(OC)c1OC [Compound 24]
STAT5a; [2]
  Ki: 75 ± 13 µM

## COc1cc(-c2cc(-c3cc(OC)c(OC)c(OC)c3)cc(C(F)(F)P(=O)(O)O)c2)cc(OC)c1OC [Compound 25]
STAT5a; [2]
  Ki: 52 ± 3 µM

## COc1cc(-c2cc(-c3cc(OC)c(OC)c(OC)c3)cc(C(F)P(=O)(O)O)c2)cc(OC)c1OC (centres unmarked) [Compound 26]
STAT5a; [2]
  Ki: 28 ± 3 µM
STAT5a; FP assays
  selectivity over STAT5b and other STAT proteins: retained selectivity over STAT5b and other STAT proteins

## COc1cc(-c2cc(-c3cc(OC)c(OC)c(OC)c3)cc(C(F)P(=O)(OCOC(=O)C(C)(C)C)OCOC(=O)C(C)(C)C)c2)cc(OC)c1OC (centres unmarked) [Compound 27]
[1]
  phosphorylation of STAT5a Tyr694 in the STAT5a-GFP fusion protein: inhibited in a dose‐dependent manner
Endogenous STAT5a/b
  phosphorylation of endogenous STAT5a/b: reduced to a substantially lower degree than that of STAT5a‐GFP
STAT5b‐GFP construct
  phosphorylation of Tyr699 in the STAT5b-GFP construct: only minimally affected
